Data as given in patent US12576129B2, “Anthelmintic compositions and methods” (priority 2016, dated 2026).
≈ marks a conversion by molar mass, not a printed value. Read-outs that look alike come from different tables or passages of the source.

Columns and labels:
[1] = cited from earlier work
BaCC [2] = assay: Minimum inhibitory concentration of terpenes against BaCC (broth microdilution); type: cell-based; details: Bacillus thuringiensis; 24 h at 30° C. in LB; no absorbance increase; read-out: MIC μg/mL (100)
Description: Three terpenes were tested against BaCC including: carvacrol, geraniol and farnesol, by using the broth microdilution method as described in Agaisse and Lereclus, J. Bacteriol. 176, 4734-4741, 1994 and Agaisse and Lereclus, Mol. Microbiol. 13, 97-107, 1994 with some modifications. Briefly, BaCC from a single colony was grown in 5 mL of LB medium supplemented with 10 μg/mL erythromycin+200 μg/mL kanamycin overnight (O.D. (600) of 4.8, 2.3×10^7 CFU/mL). Terpene solutions were prepared at 1 mg/mL in LB. One hundred μL of two-fold serial dilutions of each terpene in LB were prepared in 96-well microtiter plates over the range of 1000 to 3.9 μg/mL in triplicate. LB without terpenes was used as a negative control. BaCC culture was diluted 100 times, and 100 μL of BaCC culture was added to the wells. Absorbance at 600 nm was recorded before and after the incubation to monitor bacterial growth. The MICs were determined after incubation for 24 h at 30° C. without shaking.

BaCC [3] = assay: Carvacrol wash protocols: alive bacteria (CFU) after treatment; type: cell-based, Bacillus thuringiensis
Description: To reduce carvacrol residue in the final product, we tested different strategies. In order to reduce the carvacrol residue in the final IBaCC product, first the total amount of carvacrol was reduced by concentrating the cultures before carvacrol treatment. The cultures were centrifuged, and the pellets were re-suspended in sterile distilled water in half or one fourth of the original culture volume. Then, carvacrol was added at 1 mg/mL concentration. Second, carvacrol was removed from the culture by increasing the solubility of carvacrol in the water phase. […] As such, 5% and 15% of ethanol water was used in the washing steps following the IBaCC incubation with carvacrol. Another strategy employed was to increase the volume of distilled water during the washing steps to remove more carvacrol per wash step (for instance, only 25 mg carvacrol can be solubilized with 20 mL of water while 50 mg carvacrol can be solubilized with 40 mL of water.) Lastly, since the temperature affects carvacrol solubility, the incubation and washing steps were carried out at room temperature instead of 4° C. The positive control sample was treated with 1 mg/mL carvacrol without concentrating the culture prior to carvacrol treatment, incubated at 4° C., washed with 1M NaCl once and distilled water twice using 1:1 culture to wash volume ratio. No terpene control sample received water instead of carvacrol, but the incubation and washing steps were carried out in the same manner as the positive control. BaCC culture was grown in 3× LB for 48 hours, and 40 mL of BaCC culture was used for each condition. After washes, the culture was concentrated 20 times. Samples were plated for CFU/mL analysis as described earlier, and carvacrol residue was assessed by HPLC as follows.

E. coli = assay: CFU of E. coli after carvacrol treatment; type: cell-based, Escherichia coli; details: 1 mg/mL carvacrol for 15 minutes
Description: Bioactivity of carvacrol-treated Crystal-E. coli on C. elegans. Escherichia coli cells expressing nematicidal Crystal protein or empty vector were treated for 15 minutes with 1 mg/mL carvacrol. The cells were washed in sterile water 3 times. CFUs were determined for untreated and carvacrol-treated cells by serial dilution plating on LB plates. In addition, C. elegans nematode L4 hermaphrodites were fed overnight 1.8 ×10^7 cells/mL of E. coli untreated or carvacrol-treated, Crystal expressing and empty vector (4 conditions) at 25° C. for 16 hr.

BaCC [4] = assay: Time to kill: CFU/mL of BaCC after terpene treatment; type: cell-based, Bacillus thuringiensis
Description: In order to determine which terpene kills BaCC in the shortest amount of time, we incubated 5 mL of BaCC culture with three terpenes at 1 mg/mL at 4° C. for 1, 2, 3 and 5 hours. No terpene control and no bacteria controls were carried out simultaneously. After incubation with terpenes, samples were centrifuged and the pellets were washed with 5 mL of 1M NaCl once and 5 mL of sterile distilled water twice in order to remove the terpenes. The pellets were re-suspended in the original volume and plated on LB agar with kanamycin and erythromycin. Plates were incubated overnight at 30° C.; the next day, the number of colonies on the plates were enumerated and colony forming units (CFU)/mL calculated.
To assess terpene killing at shorter time points, BaCC culture was grown in 3× LB for 48 h as described above and 60 ml of cultures were aliquoted in sterile tubes. Carvacrol and geraniol were added to the final concentration of 1 mg/mL, and the tubes were placed on a rotator at 4° C. for 15 minutes. The negative control was prepared using sterile water instead of terpenes. At the end of the incubation period, the tubes were centrifuged at 2000× g for 10 minutes and pellets washed with 60 ml of 1 M NaCl once and washed with 60 mL of sterile distilled water twice. Pellets were re-suspended in 1.2 mL of sterile distilled water to concentrate the culture 50 times. Concentrated terpene treated and control samples were plated on LB agar plates containing kanamycin and erythromycin and incubated overnight at 30° C. The number of colonies were counted the next day and CFU/mL calculated for each time point.

[5] = Concentrated 2X = 20 ml before adding carvacrol (1 mg/mL)
[6] = Concentrated 4X = 10 ml before adding carvacrol (1 mg/mL)
[7] = Control: 4C, no concentration, 1:1 culture to wash volume (1 mg/mL carvacrol)
[8] = Incubated and washed at room temperature
[9] = Wash volume increased 2X (e.g., 40 ml wash for 20 ml culture)
[10] = Washes were done with 5% ethanol in water
[11] = Washes were done with 15% ethanol in water

In the case of `Cc1ccc(C(C)C)cc1O` [Carvacrol, carvacrol], the “log P octanol/water” value [1] is given as 3.64, the “amount that can be solubilized” value ([1]; with 20 mL of water) is given as 25 mg and the “amount that can be solubilized” value ([1]; with 40 mL of water) is given as 50 mg. The MIC (BaCC [2]) was 125 µg/mL (≈ 832 µM), the “Number of alive bacteria in 1 ml 20X concentrate” value (“Number … in 1 ml 20X concentrate” for short) (BaCC [3]; [5]) was 0 and the “Number of alive bacteria in 1 ml culture” value (BaCC [3]; [5]) was 0. For the same compound, the “Number … in 1 ml 20X concentrate” value (BaCC [3]; [6]) was 0, the “Number of alive bacteria in 1 ml culture” value (BaCC [3]; [6]) was 0 and the “Number … in 1 ml 20X concentrate” value (BaCC [3]; [7]) was 0. The “Number of alive bacteria in 1 ml culture” value (BaCC [3]; [7]) was 0, the “Number … in 1 ml 20X concentrate” value (BaCC [3]; [8]) was 0 and the “Number of alive bacteria in 1 ml culture” value (BaCC [3]; [8]) was 0. The “Number … in 1 ml 20X concentrate” value (BaCC [3]; [9]) was 140, the “Number of alive bacteria in 1 ml culture” value (BaCC [3]; [9]) was 7 and the “Number … in 1 ml 20X concentrate” value (BaCC [3]; [10]) was 0. The “Number of alive bacteria in 1 ml culture” value (BaCC [3]; [10]) was 0, the “Number … in 1 ml 20X concentrate” value (BaCC [3]; [11]) was 160 and the “Number of alive bacteria in 1 ml culture” value (BaCC [3]; [11]) was 8. For the same compound, the “killing of E. coli (CFUs)” value (E. coli) was “effectively killed the E. coli”, the “CFU/ml (1 mg/mL terpene treatment for time indicated)” value (“CFU/ml” for short) (BaCC [4]; 15 min at 4° C., culture concentrated 50 times (50X conc.) before plating) was 0 CFU/ml and the “CFU/ml” value (BaCC [4]; 1 h at 4° C.) was 0 CFU/ml. For the same compound, the “CFU/ml” value (BaCC [4]; 3 h at 4° C.) was 0 CFU/ml, the “CFU/ml” value (BaCC [4]; 5 h at 4° C.) was 0 CFU/ml and the “killing of BaCC (spo0A- cells expressing Cry5B)” value (BaCC [4]; carvacrol treatment) was “complete killing of the Bacilli”. The “comparison of antimicrobial efficiency among the 3 terpenes” value (BaCC [4]; carvacrol, geraniol, farnesol against BaCC) was “most efficient, killing the quickest and at the lowest concentration” and the “CFU/ml” value (BaCC [4]; time 0) was 2.31 × 10^7 CFU/ml.
